Values quoted from earlier work in US20250332118A1, “NOVEL ORAL CARE FORMULATIONS FOR TREATMENT OF XEROSTOMIA” (priority 2022, published 2025).

Conditions: @ 79° F.

- Water solubility: 34 % w/v
Structure (SMILES): CS(C)(=O)=O [MSM, Methylsulfonylmethane]
